Where two headings read alike, the source gives them in different places.
Experiments:
Echinochloa crusgalli [1] = assay: Table 17 field trial, treatment at the 2 leaf stage: weed control; format: in vivo; details: 14 days after application
Description: (§1) Field trial: Treatment at the 2 leaf stage, evaluation 14 days after the application.

Oryza sativa [2] = assay: Table 17 field trial, treatment at the 2 leaf stage: rice damage; format: in vivo; details: 14 days after application
Description: as §1

Cyperus iria = assay: Table 24 field trial, treatment by the pre-emergence method: weed control; format: in vivo; details: 400 g of ai/ha, 53 days after application
Description: (§2) Field trial: Treatment by the pre-emergence method, evaluation 53 days after the application.

Oryza sativa [3] = assay: Table 24 field trial, treatment by the pre-emergence method: rice damage; format: in vivo; details: in vivo
Description: as §2

Echinochloa crusgalli [4] = assay: Table 6 field trial, treatment at the 1-2 leaf stage: weed control; format: in vivo; details: 28 days after application
Method: (§4) The examples mentioned below were carried out in the greenhouse, and in some instances, in field trials.

Oryza sativa [5] = assay: Table 6 field trial, treatment at the 1-2 leaf stage: rice damage; format: in vivo; details: in vivo
Method: as §4

Oryza sativa [6] = details: in vivo
Method: Seeds or rhizome pieces of mono- and dicotyledonous weed plants are placed into sandy loam soil in plastic pots, covered with soil and grown in a greenhouse under good growth conditions (temperature, atmospheric humidity, water supply). Weeds which are encountered in the cultivation of rice are cultivated in pots in which the water level is up to 2 cm over the soil surface. Three weeks after sowing, the test plants are treated at the three-leaf stage. The active compound combinations according to the invention, formulated as wettable powders or emulsion concentrates, and, in parallel experiments, the correspondingly formulated individual active compounds are sprayed onto the green parts of the plants at different dosages using an amount of water of 300 to 600 l/ha (converted), and, after about 3 to 4 weeks of the test plants in the greenhouse under optimum growth conditions (temperature, atmospheric humidity, water supply), the effect of the preparations is evaluated visually in comparison to untreated controls. In the case of rice or weeds which are encountered in the cultivation of rice, the active compounds are also added directly to the water for irrigation (application analogous to the so-called granules application) or sprayed onto plants and added to the water for irrigation. The experiments were designed with several, up to five, repetitions. […]

Echinochloa crusgalli [7] = assay: Table 11 greenhouse trial, treatment at the 1-2 leaf stage: weed control; format: in vivo; details: 20 days after application
Method: (§3) Seeds or rhizome pieces of mono- and dicotyledonous weed plants are placed into sandy loam soil in plastic pots, covered with soil and grown in a greenhouse under good growth conditions (temperature, atmospheric humidity, water supply). Weeds which are encountered in the cultivation of rice are cultivated in pots in which the water level is up to 2 cm over the soil surface. Three weeks after sowing, the test plants are treated at the three-leaf stage. The active compound combinations according to the invention, formulated as wettable powders or emulsion concentrates, and, in parallel experiments, the correspondingly formulated individual active compounds are sprayed onto the green parts of the plants at different dosages using an amount of water of 300 to 600 l/ha (converted), and, after about 3 to 4 weeks of the test plants in the greenhouse under optimum growth conditions (temperature, atmospheric humidity, water supply), the effect of the preparations is evaluated visually in comparison to untreated controls. In the case of rice or weeds which are encountered in the cultivation of rice, the active compounds are also added directly to the water for irrigation (application analogous to the so-called granules application) or sprayed onto plants and added to the water for irrigation. The experiments were designed with several, up to five, repetitions. The herbicidal compositions according to the invention also have good herbicidal post-emergence activity against a broad spectrum of economically important weed grasses and broad-leaved weeds.
Greenhouse trial: Treatment at the 1-2 leaf stage, evaluation 20 days after the application.

Echinochloa crusgalli [8] = assay: Table 8 greenhouse trial, treatment at the 1-2 leaf stage: weed control; format: in vivo; details: 22 days after application
Description: as §3, with “Three weeks after sowing, the test plants are treated at the three-leaf stage.” left out

Oryza sativa [9] = assay: Table 7 field trial, treatment at the 1-2 leaf stage: rice damage; format: in vivo; details: 28 days after application
Method: as §4

Oryza sativa [10] = assay: Table 8 greenhouse trial, treatment at the 1-2 leaf stage: rice damage; format: in vivo; details: 22 days after application
Description: as §3, with “Three weeks after sowing, the test plants are treated at the three-leaf stage.” left out

Echinochloa crusgalli [11] = assay: Table 7 field trial, treatment at the 1-2 leaf stage: weed control; format: in vivo; details: 28 days after application
Method: as §4

Marsilea crenata = assay: as above; format: in vivo; details: 28 days after application
Method: as §4

**Q.** How did the ECHCG % control (Echinochloa crusgalli [1]; 7.5 g of ai/ha) turn out when CCOC(=O)C(Cl)Cc1cc(-n2nc(C)n(C(F)F)c2=O)c(F)cc1Cl (racemic) [B38), ethyl (RS)-2-chloro-3-[2-chloro-5-(4-difluoromethyl-4,5-dihydro-3-methyl-5-oxo-1H-1,2,4-,triazol-1-yl)-4-fluorophenyl]propionate] was run?
**A.** The ECHCG % control was 50%.

**Q.** What about the ECHCG % control (Echinochloa crusgalli [1]; 15 g of ai/ha) of the same compound?
**A.** Its ECHCG % control is 52%.

**Q.** And the ECHCG % control (Echinochloa crusgalli [1]; 30 g of ai/ha)?
**A.** Its ECHCG % control is 52%.

**Q.** And the ORYSW % damage (Oryza sativa [2]; 7.5 g of ai/ha)?
**A.** The ORYSW % damage was 0%.

**Q.** What about the ORYSW % damage (Oryza sativa [2]; 15 g of ai/ha) of the same compound?
**A.** The ORYSW % damage was 0%.

**Q.** What about the ORYSW % damage (Oryza sativa [2]; 30 g of ai/ha) of the same compound?
**A.** The ORYSW % damage was 0%.

**Q.** With CC1(C)CON(Cc2ccccc2Cl)C1=O [B44), 2-[(2-chlorophenyl)methyl]-4,4-dimethyl-3-isoxazolidinone] as the compound, how does the CYPIR % control (Cyperus iria) read?
**A.** Its CYPIR % control is 30%.

**Q.** And the ORYSW % damage (Oryza sativa [3])?
**A.** Its ORYSW % damage is 0%.

**Q.** CCCCOCN(C(=O)CCl)c1c(CC)cccc1CC [B1), N-(butoxymethyl)-2-chloro-N-(2,6-diethylphenyl)acetamide] was tested. Which ECHCG % control (Echinochloa crusgalli [4]; 300 g of ai/ha) did it give?
**A.** Its ECHCG % control is 81%.

**Q.** And the ECHCG % control (Echinochloa crusgalli [4]; 600 g of ai/ha)?
**A.** The ECHCG % control was 89%.

**Q.** What about the ORYSW % damage (Oryza sativa [5]) of the same compound?
**A.** The ORYSW % damage was 0%.

**Q.** Which ORYSW % damage (Oryza sativa [6]) does the source give for COc1cc(OC)nc(NC(=O)NS(=O)(=O)c2c(Cl)nc3ccccn23)n1 [B61), 2-chloro-N-[[(4,6-dimethoxy-2-pyrimidinyl)amino]-carbonyl]imidazo[1,2-a]pyridine-3-sulfonamide] here?
**A.** Its ORYSW % damage is 0%.

**Q.** What about the ECHCG % control (Echinochloa crusgalli [7]; 8 g of ai/ha) of the same compound?
**A.** The ECHCG % control was 0%.

**Q.** What about the ECHCG % control (Echinochloa crusgalli [7]; 15 g of ai/ha) of the same compound?
**A.** The ECHCG % control was 25%.

**Q.** And the ECHCG % control (Echinochloa crusgalli [7]; 30 g of ai/ha)?
**A.** The ECHCG % control was 50%.

**Q.** And the ECHCG % control (Echinochloa crusgalli [7]; 60 g of ai/ha)?
**A.** Its ECHCG % control is 60%.

**Q.** CCC(=O)Nc1ccc(Cl)c(Cl)c1 [B7), N-(3,4-dichlorophenyl)propanamide] was tested. Which ECHCG % control (Echinochloa crusgalli [8]; 1250 g of ai/ha) did it give?
**A.** Its ECHCG % control is 0%.

**Q.** And the ECHCG % control (Echinochloa crusgalli [8]; 2500 g of ai/ha)?
**A.** The ECHCG % control was 0%.

**Q.** What about the ECHCG % control (Echinochloa crusgalli [8]; 5000 g of ai/ha) of the same compound?
**A.** The ECHCG % control was 10%.

**Q.** And the ORYSW % damage (Oryza sativa [9]; 1000 g of ai/ha)?
**A.** Its ORYSW % damage is 0%.

**Q.** And the ORYSW % damage (Oryza sativa [9]; 2000 g of ai/ha)?
**A.** The ORYSW % damage was 0%.

**Q.** What about the ORYSW % damage (Oryza sativa [10]; 1250 g of ai/ha) of the same compound?
**A.** The ORYSW % damage was 0%.

**Q.** What about the ORYSW % damage (Oryza sativa [10]; 2500 g of ai/ha) of the same compound?
**A.** The ORYSW % damage was 0%.

**Q.** What about the ORYSW % damage (Oryza sativa [10]; 5000 g of ai/ha) of the same compound?
**A.** Its ORYSW % damage is 0%.

**Q.** And the ECHCG % control (Echinochloa crusgalli [11]; 1000 g of ai/ha)?
**A.** Its ECHCG % control is 79%.

**Q.** What about the ECHCG % control (Echinochloa crusgalli [11]; 2000 g of ai/ha) of the same compound?
**A.** Its ECHCG % control is 88%.

**Q.** And the MASCR % control (Marsilea crenata; 1000 g of ai/ha)?
**A.** Its MASCR % control is 0%.

**Q.** What about the MASCR % control (Marsilea crenata; 2000 g of ai/ha) of the same compound?
**A.** Its MASCR % control is 0%.

— patent publication US6864217B2, “Herbicidal compositions with substituted phenylsulfonylureas for controlling weeds in rice” (Hoechst Schering AgrEvo GmbH, priority 1998, dated 2005)
